From ChEMBL document CHEMBL1151939, “Potential scorpionate antibiotics: targeted hydrolysis of lipid II containing model membranes by vancomycin-TACzyme conjugates and modulation of their antibacterial activity by Zn-ions” (2009)
Converted amounts (≈) assume the structure as drawn. The source made the active and inactive calls. The calls are words filed in the database; no cut-off is given here.

What was measured:
Format in all cases: functional
[1] = test system: Enterococcus; experiment: Antimicrobial activity against vancomycin-susceptible Enterococcus 15A797 by broth microdilution method
[2] = test system: Enterococcus; experiment: Antimicrobial activity against vancomycin-resistant Enterococcus 15A799 by broth microdilution method
[3] = test system: Enterococcus; experiment: Antimicrobial activity against vancomycin-susceptible Enterococcus 15A797 by broth microdilution method in presence of ZnSo4 in medium
[4] = test system: Enterococcus; experiment: Antimicrobial activity against vancomycin-resistant Enterococcus 15A799 by broth microdilution method in presence of ZnSo4 in medium

| SMILES | MIC [1] | MIC [2] | MIC [3] | MIC [4] |
| --- | --- | --- | --- | --- |
| C#CCCC(=O)NCCCOCCOCCOCCCNC(=O)[C@H]1NC(=O)[C@H]2NC(=O)[C@H](NC(=O)[C@@H]3NC(=O)[C@H](CC(N)=O)NC(=O)[C@H](NC(=O)[C@@H](CC(C)C)NC)[C@H](O)c4ccc(c(Cl)c4)Oc4cc3cc(c4O[C@@H]3O[C@H](CO)[C@@H](O)[C@H](O)[C@H]3O[C@H]3C[C@](C)(N)[C@H](O)[C@H](C)O3)Oc3ccc(cc3Cl)[C@H]2O)c2ccc(O)c(c2)-c2c(O)cc(O)cc21 | 1 µM (≈ 1.73 µg/mL) | inactive |  |  |
| CN[C@H](CC(C)C)C(=O)N[C@H]1C(=O)N[C@@H](CC(N)=O)C(=O)N[C@H]2C(=O)N[C@H]3C(=O)N[C@H](C(=O)N[C@H](C(=O)NCCCOCCOCCOCCNC(=O)c4cc(OCCNC(=O)c5cc(OCc6cn(CCCNC(=O)CC[C@H](NC(=O)c7cc8cc(c7)CN(C(=O)[C@@H](Cc7c[nH]cn7)NC(C)=O)CCCN(C(=O)[C@H](Cc7c[nH]cn7)NC(C)=O)CCCN(C(=O)[C@H](Cc7c[nH]cn7)NC(C)=O)C8)C(N)=O)nn6)cc(OCc6cn(CCCNC(=O)CC[C@H](NC(=O)c7cc8cc(c7)CN(C(=O)[C@@H](Cc7c[nH]cn7)NC(C)=O)CCCN(C(=O)[C@H](Cc7c[nH]cn7)NC(C)=O)CCCN(C(=O)[C@H](Cc7c[nH]cn7)NC(C)=O)C8)C(N)=O)nn6)c5)cc(OCCNC(=O)c5cc(OCc6cn(CCCNC(=O)CC[C@H](NC(=O)c7cc8cc(c7)CN(C(=O)[C@@H](Cc7c[nH]cn7)NC(C)=O)CCCN(C(=O)[C@H](Cc7c[nH]cn7)NC(C)=O)CCCN(C(=O)[C@H](Cc7c[nH]cn7)NC(C)=O)C8)C(N)=O)nn6)cc(OCc6cn(CCCNC(=O)CC[C@H](NC(=O)c7cc8cc(c7)CN(C(=O)[C@@H](Cc7c[nH]cn7)NC(C)=O)CCCN(C(=O)[C@H](Cc7c[nH]cn7)NC(C)=O)CCCN(C(=O)[C@H](Cc7c[nH]cn7)NC(C)=O)C8)C(N)=O)nn6)c5)c4)c4cc(O)cc(O)c4-c4cc3ccc4O)[C@H](O)c3ccc(c(Cl)c3)Oc3cc2cc(c3O[C@@H]2O[C@H](CO)[C@@H](O)[C@H](O)[C@H]2O[C@H]2C[C@](C)(N)[C@H](O)[C@H](C)O2)Oc2ccc(cc2Cl)[C@H]1O | 40 µM (≈ 255 µg/mL) | inactive | 5 µM | inactive |
| COC(=O)c1cc(OCCNC(=O)c2cc(OCc3cn(CCCNC(=O)CC[C@H](NC(=O)c4cc5cc(c4)CN(C(=O)[C@H](Cc4c[nH]cn4)NC(C)=O)CCCN(C(=O)[C@H](Cc4c[nH]cn4)NC(C)=O)CCCN(C(=O)[C@H](Cc4c[nH]cn4)NC(C)=O)C5)C(N)=O)nn3)cc(OCc3cn(CCCNC(=O)CC[C@H](NC(=O)c4cc5cc(c4)CN(C(=O)[C@H](Cc4c[nH]cn4)NC(C)=O)CCCN(C(=O)[C@H](Cc4c[nH]cn4)NC(C)=O)CCCN(C(=O)[C@H](Cc4c[nH]cn4)NC(C)=O)C5)C(N)=O)nn3)c2)cc(OCCNC(=O)c2cc(OCc3cn(CCCNC(=O)CC[C@@H](NC(=O)c4cc5cc(c4)CN(C(=O)[C@H](Cc4c[nH]cn4)NC(C)=O)CCCN(C(=O)[C@@H](Cc4c[nH]cn4)NC(C)=O)CCCN(C(=O)[C@H](Cc4c[nH]cn4)NC(C)=O)C5)C(N)=O)nn3)cc(OCc3cn(CCCNC(=O)CC[C@@H](NC(=O)c4cc5cc(c4)CN(C(=O)[C@H](Cc4c[nH]cn4)NC(C)=O)CCCN(C(=O)[C@@H](Cc4c[nH]cn4)NC(C)=O)CCCN(C(=O)[C@H](Cc4c[nH]cn4)NC(C)=O)C5)C(N)=O)nn3)c2)c1 |  |  | inactive | inactive |
| C#CCOc1cc(OCC#C)cc(C(=O)NCCOc2cc(OCCNC(=O)c3cc(OCC#C)cc(OCC#C)c3)cc(C(=O)NCCCOCCOCCOCCCNC(=O)[C@H]3NC(=O)[C@H]4NC(=O)[C@H](NC(=O)[C@@H]5NC(=O)[C@H](CC(N)=O)NC(=O)[C@H](NC(=O)[C@@H](CC(C)C)NC)[C@H](O)c6ccc(c(Cl)c6)Oc6cc5cc(c6O[C@@H]5O[C@H](CO)[C@@H](O)[C@H](O)[C@H]5O[C@H]5C[C@](C)(N)[C@H](O)[C@H](C)O5)Oc5ccc(cc5Cl)[C@H]4O)c4ccc(O)c(c4)-c4c(O)cc(O)cc43)c2)c1 | 1.6 µM (≈ 3.68 µg/mL) | 3.2 µM (≈ 7.35 µg/mL) |  |  |
| CN[C@H](CC(C)C)C(=O)N[C@H]1C(=O)N[C@@H](CC(N)=O)C(=O)N[C@H]2C(=O)N[C@H]3C(=O)N[C@H](C(=O)N[C@H](C(=O)NCCCOCCOCCOCCCNC(=O)CCc4cn(CCCNC(=O)CC[C@H](NC(=O)c5cc6cc(c5)CN(C(=O)[C@@H](Cc5c[nH]cn5)NC(C)=O)CCCN(C(=O)[C@H](Cc5c[nH]cn5)NC(C)=O)CCCN(C(=O)[C@H](Cc5c[nH]cn5)NC(C)=O)C6)C(N)=O)nn4)c4cc(O)cc(O)c4-c4cc3ccc4O)[C@H](O)c3ccc(c(Cl)c3)Oc3cc2cc(c3O[C@@H]2O[C@H](CO)[C@@H](O)[C@H](O)[C@H]2O[C@H]2C[C@](C)(N)[C@H](O)[C@H](C)O2)Oc2ccc(cc2Cl)[C@H]1O | 5.8 µM (≈ 16 µg/mL) | inactive | 2.9 µM | 92.8 µM |
| CN[C@H](CC(C)C)C(=O)N[C@H]1C(=O)N[C@@H](CC(N)=O)C(=O)N[C@H]2C(=O)N[C@H]3C(=O)N[C@H](C(=O)N[C@H](C(=O)O)c4cc(O)cc(O)c4-c4cc3ccc4O)[C@H](O)c3ccc(c(Cl)c3)Oc3cc2cc(c3O[C@@H]2O[C@H](CO)[C@@H](O)[C@H](O)[C@H]2O[C@H]2C[C@](C)(N)[C@H](O)[C@H](C)O2)Oc2ccc(cc2Cl)[C@H]1O [VANCOMYCIN] | 0.3 µM (≈ 0.435 µg/mL) | 86 µM (≈ 125 µg/mL) |  |  |
| CC(=O)N[C@@H](Cc1c[nH]cn1)C(=O)N1CCCN(C(=O)[C@H](Cc2c[nH]cn2)NC(C)=O)Cc2cc(cc(C(=O)N[C@@H](CCC(=O)NCCCN=[N+]=[N-])C(N)=O)c2)CN(C(=O)[C@@H](Cc2c[nH]cn2)NC(C)=O)CCC1 |  |  | inactive | inactive |
